Laboratory results: article PMC9296036, “A peptide interfering with the dimerization of oncogenic KITENIN protein and its stability suppresses colorectal tumour progression” (Clinical and Translational Medicine, 2022)
Ends that are not written are not given here.

Tested on: Caco2/KITENIN-V5 cells
Test: Autophagosome staining (Cyto-ID) in Caco2/KITENIN-V5 cells
Format: cell-based
Conditions: KDIP 5 μM, similar to rapamycin positive control
Description: To test whether KDIP induces autophagy in KITENIN‐expressing Caco2 cells, cells were grown on coverslips for 24 h. Cells were washed with PBS and then stained with Cyto‐ID green fluorescence reagents (Enzo Life Sciences, Plymouth Meeting, PA) for 1 h at 37°C in a cell culture incubator. Cells were washed with PBS and mounted with […] mounting medium containing nuclear DAPI (Vector Lab). Cells were imaged by confocal microscope.
FIGURE 3 RACK1 binds to KAI1 C‐terminal interacting tetraspanin (KITENIN) and KITENIN dimerization‐interfering peptide (KDIP) stimulates the degradation of KITENIN by inducing increased binding of RACK1 to KITENIN. (A) RACK1 specifically binds to KITENIN. Caco2/KITENIN‐V5 cells were transfected with RACK1‐GFP for 48 h, immunoprecipitated with anti‐GFP antibody and immunoblotted with anti‐V5 antibody to detect KITENIN bound with RACK1 (left panel). […] The proteins in whole‐cell lysate (WCL) were detected with the indicated antibody. […] Caco2 cells were transfected with KITENIN‐V5 and/or RACK1‐GFP (left) or KITENIN‐V5 and/or si‐RACK1 (right), and their expression after treatment with KDIP (1 μM, 24 h) was detected with the indicated antibody (upper) or subjected to invasion assay (lower). […] Caco2/KITENIN‐V5 cells were treated with KDIP for 24 h and assessed by immunoblot analyses using an anti‐KITENIN, an anti‐p62, or an anti‐LC3B antibody (left panel). […]

YARVRRRGPRRWRLVSDEAV [KDIP]
formation of the autophagosome (in words): increased
